Measured values taken from patent publication US20220062240A1, “METHODS OF TREATING CANCER USING A CLK INHIBITOR” (BioSplice Therapeutics, Inc., priority 2018, published 2022).
Read-outs that look alike come from different tables or passages of the source.

What was measured:
CLK2 = target: T1, CLK2 (Homo sapiens, UniProt P49760); test: CLK2 kinase activity assay (Z-lyte, Ser/Thr 6 peptide); assay type: biochemical; settings: recombinant CLK2 kinase, ATP 60 μM; read-out: EC50
T1 construct: purchased Thermo Fisher (Life Technologies), Z'-LYTE Kinase Assay Kits
T1 sequence (P49760 whole entry): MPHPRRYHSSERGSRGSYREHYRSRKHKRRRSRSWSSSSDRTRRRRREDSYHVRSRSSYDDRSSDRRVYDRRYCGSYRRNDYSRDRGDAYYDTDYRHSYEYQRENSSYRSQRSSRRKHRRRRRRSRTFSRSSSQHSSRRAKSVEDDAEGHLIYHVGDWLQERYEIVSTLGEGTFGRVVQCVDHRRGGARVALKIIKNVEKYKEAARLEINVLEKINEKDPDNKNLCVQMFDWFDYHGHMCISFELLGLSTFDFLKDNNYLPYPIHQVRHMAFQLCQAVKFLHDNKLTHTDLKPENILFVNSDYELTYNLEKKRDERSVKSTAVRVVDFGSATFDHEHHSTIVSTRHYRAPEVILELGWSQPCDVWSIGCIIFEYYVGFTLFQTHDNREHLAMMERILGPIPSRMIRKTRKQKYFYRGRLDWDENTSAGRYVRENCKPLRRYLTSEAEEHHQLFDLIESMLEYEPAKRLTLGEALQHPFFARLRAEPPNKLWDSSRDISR
Protocol: All reactions were performed in duplicate.

BT-549 = test: CellTiter-Glo Viability Assay, breast cancer; assay type: cell-based; settings: Homo sapiens, 96 h; BT-549, breast cancer, four days; read-out: EC50
CAMA1 = test: CellTiter-Glo Viability Assay, breast cancer; assay type: cell-based; settings: Homo sapiens, CAMA-1, 96 h; CAMA1, breast cancer, four days; read-out: EC50
DU4475 = test: CellTiter-Glo Viability Assay, breast cancer; assay type: cell-based; settings: Homo sapiens, DU-4475, 96 h; DU4475, breast cancer, four days; read-out: EC50
HCC1599 = test: CellTiter-Glo Viability Assay, breast cancer; assay type: cell-based; settings: Homo sapiens, 96 h; HCC1599, breast cancer, four days; read-out: EC50
MCF7 = test: CellTiter-Glo Viability Assay, breast cancer; assay type: cell-based; settings: Homo sapiens, 96 h; MCF7, breast cancer, four days; read-out: EC50
MDA-MB-231-Luc = test: CellTiter-Glo Viability Assay, breast cancer; assay type: cell-based; settings: Homo sapiens, 96 h; MDA-MB-231-Luc, breast cancer, four days; read-out: EC50
T47D = test: CellTiter-Glo Viability Assay, breast cancer; assay type: cell-based; settings: Homo sapiens, 96 h, breast cancer, four days, read-out: EC50
ZR-75-1 = test: CellTiter-Glo Viability Assay, breast cancer; assay type: cell-based; settings: Homo sapiens, 96 h; ZR-75-1, breast cancer, four days; read-out: EC50
all 50 cell lines = test: CellTiter-Glo Viability Assay, average across all cell lines; assay type: cell-based; settings: Homo sapiens; across all 50 cell lines; read-out: average EC50 for inhibition of cancer cell proliferation
How it was run: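 Cancer cell lines of several tumour types plated at 300-3,000 cells/well and exposed to compound in duplicate for four days at 37° C, 5% CO2, with DMSO-treated controls. Viability read by CellTiter-Glo luminescence (ATP content); EC50 derived from dose-response curves.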

[1] = test system: colorectal cancer (6 cell lines); test: CellTiter-Glo Viability Assay, colorectal cancer; assay type: cell-based; settings: Homo sapiens, inhibition of cancer cell proliferation
[2] = test system: haematopoietic & lymphoid tumors (13 cell lines); test: CellTiter-Glo Viability Assay, haematopoietic & lymphoid tumors; assay type: cell-based; settings: Homo sapiens, inhibition of cancer cell proliferation
[3] = test system: liver cancer (3 cell lines); test: CellTiter-Glo Viability Assay, liver cancer; assay type: cell-based; settings: Homo sapiens, inhibition of cancer cell proliferation
[4] = test system: lung cancer (4 cell lines); test: CellTiter-Glo Viability Assay, lung cancer; assay type: cell-based; settings: Homo sapiens, inhibition of cancer cell proliferation
[5] = test system: ovarian cancer (4 cell lines); test: CellTiter-Glo Viability Assay, ovarian cancer; assay type: cell-based; settings: Homo sapiens, inhibition of cancer cell proliferation
[6] = test system: pancreatic cancer (8 cell lines); test: CellTiter-Glo Viability Assay, pancreatic cancer; assay type: cell-based; settings: Homo sapiens, inhibition of cancer cell proliferation
[7] = test system: prostate cancer (5 cell lines); test: CellTiter-Glo Viability Assay, prostate cancer; assay type: cell-based; settings: Homo sapiens
CLK3 = CLK3 (Homo sapiens, UniProt P49761); test: CLK3 kinase activity assay (Z-lyte, Ser/Thr 18 peptide)
Chain of CLK3 (P49761 whole entry): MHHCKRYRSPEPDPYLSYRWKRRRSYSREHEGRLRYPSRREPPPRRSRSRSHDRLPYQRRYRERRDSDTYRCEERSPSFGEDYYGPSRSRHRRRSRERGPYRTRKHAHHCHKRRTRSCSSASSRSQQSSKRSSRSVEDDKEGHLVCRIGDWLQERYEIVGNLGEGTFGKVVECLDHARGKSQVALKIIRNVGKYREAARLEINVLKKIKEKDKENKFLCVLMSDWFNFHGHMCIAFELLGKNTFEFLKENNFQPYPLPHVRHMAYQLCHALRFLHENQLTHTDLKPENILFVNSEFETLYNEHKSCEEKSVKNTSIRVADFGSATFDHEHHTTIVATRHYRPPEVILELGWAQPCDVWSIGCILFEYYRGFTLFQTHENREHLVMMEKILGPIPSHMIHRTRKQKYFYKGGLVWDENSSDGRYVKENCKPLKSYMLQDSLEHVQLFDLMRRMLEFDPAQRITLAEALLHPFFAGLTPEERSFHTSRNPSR

[8] = HCT-116, HCT116 cell line, read-out: Colorectal cancer, EC50 (μM) HCT116
[9] = HT-29, HT29 cell line, read-out: Colorectal cancer, EC50 (μM) HT29
[10] = SW-620, SW620 cell line, read-out: Colorectal cancer, EC50 (μM) SW620
[11] = DLD-1 cell line, read-out: Colorectal cancer, EC50 (μM) DLD-1
[12] = SW48 cell line, read-out: Colorectal cancer, EC50 (μM) SW48
[13] = SW480 cell line, read-out: Colorectal cancer, EC50 (μM) SW480
[14] = DND41, DND-41 cell line, read-out: Haematopoietic & Lymphoid tumors, EC50 (μM) DND-41
[15] = MV4-11, MV-4-11 cell line, read-out: Haematopoietic & Lymphoid tumors, EC50 (μM) MV-4-11
[16] = Rec1, REC-1 cell line, read-out: Haematopoietic & Lymphoid tumors, EC50 (μM) REC-1
[17] = SU-DHL-4, SUDHL4 cell line, read-out: Haematopoietic & Lymphoid tumors, EC50 (μM) SUDHL4
[18] = HL-60 cell line, read-out: Haematopoietic & Lymphoid tumors, EC50 (μM) HL-60
[19] = JM1 cell line, read-out: Haematopoietic & Lymphoid tumors, EC50 (μM) JM1
[20] = JURKAT, Clone E6-1 cell line, read-out: Haematopoietic & Lymphoid tumors, EC50 (μM) JURKAT, Clone E6-1
[21] = JeKo-1 cell line, read-out: Haematopoietic & Lymphoid tumors, EC50 (μM) JeKo-1
[22] = KASUMI-1 cell line, read-out: Haematopoietic & Lymphoid tumors, EC50 (μM) KASUMI-1
[23] = Loucy cell line, read-out: Haematopoietic & Lymphoid tumors, EC50 (μM) Loucy
[24] = MOLT-4 cell line, read-out: Haematopoietic & Lymphoid tumors, EC50 (μM) MOLT-4
[25] = TF-1 cell line, read-out: Haematopoietic & Lymphoid tumors, EC50 (μM) TF-1
[26] = TOLEDO cell line, read-out: Haematopoietic & Lymphoid tumors, EC50 (μM) TOLEDO
[27] = SNU-398, SNU398 cell line, read-out: Liver cancer, EC50 SNU398
[28] = HEPG2 cell line, read-out: Liver cancer, EC50 HEPG2
[29] = PLC/PRF/5 cell line, read-out: Liver cancer, EC50 PLC/PRF/5
[30] = A-427, A427 cell line, read-out: Lung cancer, EC50 (μM) A427
[31] = HCC78, HCC-78 cell line, read-out: Lung cancer, EC50 (μM) HCC-78
[32] = NCI-H460 cell line, read-out: Lung cancer, EC50 (μM) NCI-H460
[33] = NCI-H522 cell line, read-out: Lung cancer, EC50 (μM) NCI-H522
[34] = PA-1, PA1 cell line, read-out: Ovarian cancer, EC50 (μM) PA1
[35] = TOV112D, TOV-112D cell line, read-out: Ovarian cancer, EC50 (μM) TOV-112D
[36] = OV-90 cell line, read-out: Ovarian cancer, EC50 (μM) OV-90
[37] = OVCAR-3 cell line, read-out: Ovarian cancer, EC50 (μM) OVCAR-3
[38] = BXPC-3, BxPC3 cell line, read-out: Pancreatic cancer, EC50 BxPC3
[39] = CAPAN-1, Capan1 cell line, read-out: Pancreatic cancer, EC50 Capan1
[40] = Capan-2, Capan2 cell line, read-out: Pancreatic cancer, EC50 Capan2
[41] = MIA PaCa-2 cell line, read-out: Pancreatic cancer, EC50 MIA PaCa-2
[42] = PANC 05.04 cell line, read-out: Pancreatic cancer, EC50 PANC 05.04
[43] = PANC-1 cell line, read-out: Pancreatic cancer, EC50 PANC-1
[44] = UPAFII cell line, read-out: Pancreatic cancer, EC50 UPAFII
[45] = DU-145, read-out: Prostate cancer EC50 Du-145
[46] = PC-3, PC3 cell line, inhibition of cancer cell proliferation, read-out: Prostate cancer EC50 PC3
[47] = 22Rv1 cell line, inhibition of cancer cell proliferation, read-out: Prostate cancer EC50 22Rv1
[48] = LNCap clone FGC cell line, inhibition of cancer cell proliferation, read-out: Prostate cancer EC50 LNCap clone FGC
[49] = VCaP (Sigma) cell line, inhibition of cancer cell proliferation, read-out: Prostate cancer EC50 VCaP (Sigma)

`Cc1ncc(-c2ccc3cnc(NC(=O)c4cnn(C5CCN(C)CC5)c4)cc3c2)o1` [Compound 83] gave an EC50 (CLK2) of 0.0029 µM, an EC50 (BT-549) of 0.176 µM and an EC50 (CAMA1) of 0.304 µM. The EC50 (DU4475) was 0.145 µM, the EC50 (HCC1599) was 0.099 µM and the EC50 (MCF7) was 0.491 µM. It also gave an EC50 (MDA-MB-231-Luc) of 0.193 µM, an EC50 (T47D) of 0.253 µM and an EC50 (ZR-75-1) of 0.22 µM. For the same molecule, the EC50 (all 50 cell lines) was 0.182 µM, the EC50 [1, 8] was 0.102 µM and the EC50 [1, 9] was 0.182 µM. For the same molecule, the EC50 [1, 10] was 0.065 µM, the EC50 [1, 11] was 0.145 µM and the EC50 [1, 12] was 0.058 µM. It also gave an EC50 [1, 13] of 0.117 µM, an EC50 [2, 14] of 0.185 µM and an EC50 [2, 15] of 0.033 µM. It also gave an EC50 [2, 16] of 0.065 µM, an EC50 [2, 17] of 0.151 µM and an EC50 [2, 18] of 0.409 µM. The EC50 [2, 19] was 0.064 µM, the EC50 [2, 20] was 0.353 µM and the EC50 [2, 21] was 0.064 µM. It also gave an EC50 [2, 22] of 0.129 µM, an EC50 [2, 23] of 0.135 µM and an EC50 [2, 24] of 0.196 µM. The EC50 [2, 25] was 0.256 µM, the EC50 [2, 26] was 0.087 µM and the EC50 [3, 27] was 0.05 µM. It also gave an EC50 [3, 28] of 0.107 µM, an EC50 [3, 29] of 0.314 µM and an EC50 [4, 30] of 0.275 µM. The EC50 [4, 31] was 0.173 µM, the EC50 [4, 32] was 0.197 µM and the EC50 [4, 33] was 0.105 µM. The EC50 [5, 34] was 0.17 µM, the EC50 [5, 35] was 0.121 µM and the EC50 [5, 36] was 0.234 µM. The EC50 [5, 37] was 0.11 µM, the EC50 [6, 38] was 0.254 µM and the EC50 [6, 39] was 0.198 µM. It also gave an EC50 [6, 40] of 0.321 µM, an EC50 [6, 41] of 0.091 µM and an EC50 [6, 42] of 0.169 µM. The EC50 [6, 43] was 0.291 µM, the EC50 [6, 44] was 0.14 µM and the EC50 [7, 45] was 0.199 µM. It also gave an EC50 [7, 46] of 0.195 µM, an EC50 [7, 47] of 0.14 µM and an EC50 [7, 48] of 0.33 µM. The EC50 [7, 49] was 0.255 µM and the EC50 (CLK3) was 0.0136 µM.
In the case of `c1cncc(-c2ccc3[nH]nc(-c4cc5c(-c6cccnc6)cncc5[nH]4)c3c2)c1` [Compound 48], the EC50 (CLK2) is reported as 0.0001 µM, the EC50 (BT-549) is reported as 1.31 µM and the EC50 (CAMA1) is reported as 1.91 µM. The EC50 (DU4475) was 1 µM, the EC50 (HCC1599) was 0.146 µM and the EC50 (MCF7) was greater than 3.5 µM. The EC50 (MDA-MB-231-Luc) was 2.86 µM, the EC50 (T47D) was greater than 3.5 µM and the EC50 (ZR-75-1) was 3.41 µM. For the same molecule, the EC50 (all 50 cell lines) was 3.22 µM, the EC50 [1, 8] was 1.17 µM and the EC50 [1, 9] was 1.54 µM. For the same molecule, the EC50 [1, 10] was 0.886 µM, the EC50 [1, 11] was 2.21 µM and the EC50 [1, 12] was 0.63 µM. For the same molecule, the EC50 [1, 13] was 1.57 µM, the EC50 [2, 14] was 0.894 µM and the EC50 [2, 15] was 0.147 µM. The EC50 [2, 16] was 2.31 µM, the EC50 [2, 17] was 1.23 µM and the EC50 [2, 18] was 3.06 µM. For the same molecule, the EC50 [2, 19] was 0.409 µM, the EC50 [2, 20] was 1.77 µM and the EC50 [2, 21] was 0.455 µM. For the same molecule, the EC50 [2, 22] was 2.01 µM, the EC50 [2, 23] was 0.952 µM and the EC50 [2, 24] was 2.52 µM. For the same molecule, the EC50 [2, 25] was 2.92 µM, the EC50 [2, 26] was 0.317 µM and the EC50 [3, 27] was 0.381 µM. The EC50 [3, 28] was 2.2 µM, the EC50 [3, 29] was greater than 3.5 µM and the EC50 [4, 30] was 0.875 µM. It also gave an EC50 [4, 31] greater than 3.5 µM, an EC50 [4, 32] greater than 3.5 µM and an EC50 [4, 33] of 1.17 µM. The EC50 [5, 34] was 1.29 µM, the EC50 [5, 35] was 1.68 µM and the EC50 [5, 36] was greater than 3.5 µM. It also gave an EC50 [5, 37] of 0.89 µM, an EC50 [6, 38] of 3.3 µM and an EC50 [6, 39] of 2.76 µM. The EC50 [6, 40] was greater than 3.5 µM, the EC50 [6, 41] was 1 µM and the EC50 [6, 42] was greater than 3.5 µM. It also gave an EC50 [6, 43] greater than 3.5 µM, an EC50 [6, 44] of 1.8 µM and an EC50 [7, 45] of 1.87 µM. It also gave an EC50 [7, 46] of 1.03 µM, an EC50 [7, 47] of 1.15 µM and an EC50 [7, 48] greater than 3.5 µM. The EC50 [7, 49] was 2 µM and the EC50 (CLK3) was 0.0025 µM.
